In patent publication US20250296971A1, “GASTRIC INHIBITORY PEPTIDE RECEPTOR LIGANDS” (priority 2021, published 2025):
*1 amine or outer side, *2 acyl side, *3 side chain or, on linkers, in order; H or OH if unused. Where a SMILES comes first, the peptide text is derived from it. Bridges are numbered along the chain shown (N, C = ends). [ ]: non-standard residue; d: D form. The star is where a group is joined. NH(1-deoxy-D-glucityl) = OC[C@@H](O)[C@@H](O)[C@H](O)[C@@H](O)CN*; DOTA = O=C(O)CN1CCN(CC(=O)O)CCN(CC(=O)*)CCN(CC(=O)O)CC1; Trp(5-Cl) = N[C@@H](Cc1c[nH]c2ccc(Cl)cc12)C(=O)O; Pyridine(2,6-diCH2) = c1cc(C[*:1])nc(C[*:2])c1; Pro(4R-NH2) = N[C@H]1CN[C@H](C(=O)O)C1; Glutaryl = O=C(CCCC(=O)[*:2])[*:1]; X1 = O=C(CN1CCC(N[*:1])CC1)[*:2]; Api = NC1(C(=O)O)CCNCC1

Columns and labels:
[1] = Plasma stability assay, human plasma; assay type: in vitro ADME; details: 37° C., % intact compound remaining after 4 h or 24 h
Method: In order to determine the stability of selected compounds of the invention in human and mouse plasma, a plasma stability assay was carried out. Such plasma stability assay measures degradation of compounds of the present invention in blood plasma. This is an important characteristic of a compound as compounds, with the exception of pro-drugs, which rapidly degrade in plasma, generally show poor in vivo efficacy. […] The stability is sufficient for the diagnostic, therapeutic and theragnostic use of these compounds according to the present invention.
The plasma stability samples were prepared by spiking 50 μL plasma aliquots (all K2EDTA) with 1 μL of a 0.5 mM compound stock solution in DMS0. After vortexing the samples were incubated in a Thermomixer at 37° C. for 0, 4 and 24 hours. After incubation the samples were stored on ice until further treatment. All samples were prepared in duplicates.
A suitable internal standard was added to each sample (1 μL of a 0.5 mM stock solution in DMSO). Protein precipitation was performed by addition of 250 μL of acetonitrile containing 1% trifluoroacetic acid. After incubation at room temperature for 30 min the precipitate was separated by centrifugation and 150 μL of the supernatant was diluted with 150 μL of 1% aqueous formic acid.
Additionally, recovery was determined by spiking a pure plasma sample that only contained the internal standard after treatment with a certain amount of the compound.
Carry-over was evaluated by analysis of a blank sample (20% acetonitrile) after the highest calibration sample.

[2] = target: T1, Dog GIPR (Canis lupus familiaris, UniProt A0A8I3MPG1); test: Radioligand binding assay, dog GIPR; details: 111In-labeled compound, 6 h, 37° C., read-out: pKD Category (converted)
T1 construct: host or cells: CHO-VGT
T1 sequence (A0A8I3MPG1 24-449): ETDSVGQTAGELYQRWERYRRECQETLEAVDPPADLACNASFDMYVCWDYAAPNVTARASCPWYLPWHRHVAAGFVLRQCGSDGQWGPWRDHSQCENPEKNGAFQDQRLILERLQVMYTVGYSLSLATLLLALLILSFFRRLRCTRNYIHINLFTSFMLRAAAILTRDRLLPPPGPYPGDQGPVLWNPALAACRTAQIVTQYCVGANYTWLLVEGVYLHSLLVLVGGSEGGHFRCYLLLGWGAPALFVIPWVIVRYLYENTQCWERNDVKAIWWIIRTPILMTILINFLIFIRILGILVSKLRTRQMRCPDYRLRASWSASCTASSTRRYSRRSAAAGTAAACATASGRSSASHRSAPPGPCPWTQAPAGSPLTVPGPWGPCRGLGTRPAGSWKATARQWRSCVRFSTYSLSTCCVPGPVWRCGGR
Method: In order to assess the affinity of ^111In-labeled compounds to the GIPR receptor of different species, a radioligand binding assay was established.
CHO-K1 cells (GenScript Biotech, #M00486) were stably transfected with the human GIPR. CHO-K1-hGIPR cells were cultured in Ham's F12 medium (Sigma-Aldrich, #N4888) including 10% fetal calf serum (FCS), 2 mM L-glutamine, 100 U/mL penicillin, 100 µg/mL streptomycin, 200 µg/mL Zeocin and 100 µg/mL HygromycinB. To evaluate the species cross-reactivity, CHO-VGT cells were transfected with the human, dog, rat and mouse GIPR (Inscreenex GmbH), which were cultured in DMEM/Ham's F12 Medium 1:1 (Biochrom, #F485) including 5% fetal calf serum (FCS), 2 mM L-glutamine, 100 U/mL penicillin and 100 μg/mL streptomycin. Cells were detached with Accutase (Biolegend, #BLD-423201) and counted using a particle counter (CASY Model TT; Schärfe Systems). Cell concentrations were adjusted to 3×10^5 mL^−1, and 1.000 μL of the suspension per well were dispensed into flat-clear-bottom 24 well plates.
Approximately 24 hours after re-seeding, the medium was aspirated and the cells were washed once with 700 μL assay medium (Ham's medium with 20 mM HEPES). […]
At the end of incubation time, cells were washed and subsequently harvested in 300 μL RIPA buffer containing PIC. Radioactivity of the cell lysate of each well was counted using a gamma counter (Perkin Elmer). […]

- Human plasma stability category [1]: A (>80% intact after 24 hours)
- Kd [2]: < 0.316 nM
SMILES: CC[C@H](C)[C@@H]1NC(=O)[C@H](CC(C)C)NC(=O)C2(CCN(C(=O)CN3CCN(CC(=O)O)CCN(CC(=O)O)CCN(CC(=O)O)CC3)CC2)NC(=O)[C@@H](NC(=O)[C@@H](CC(C)C)NC(=O)[C@H](CCC(=O)O)NC(=O)[C@@H]2C[C@@H](N)CN2C(=O)[C@H](Cc2c[nH]c3ccc(Cl)cc23)NC(=O)[C@H](Cc2c[nH]c3ccccc23)NC(=O)[C@H](CC(=O)O)NC(=O)CCCC(=O)NC[C@H](O)[C@@H](O)[C@H](O)[C@H](O)CO)CSCc2cccc(n2)CSC[C@@H](C(=O)NC2CCN(CC(=O)N[C@H](CCC(=O)NC[C@H](O)[C@@H](O)[C@H](O)[C@H](O)CO)C(N)=O)CC2)NC1=O [GIP-001, AGLU-Glutar-Asp-Trp-5Clw-Tap-Glu-leu-[Cys(2Lut)-Apc(DOTA)-Leu-Ile-Cys]-APAc-glu(AGLU)-NH2] ({NH(1-deoxy-D-glucityl)-Glutaryl}-DW[Trp(5-Cl)][Pro(4R-NH2)]E[dL]C[Api](DOTA)LIC[X1][dE](NH(1-deoxy-D-glucityl))-NH2; linker 7-11 via Pyridine(2,6-diCH2))
